Data as given in publication PMC10980263, “Cryo-EM structures of the human NaS1 and NaDC1 transporters revealed the elevator transport and allosteric regulation mechanism” (Science Advances, 2024).
Residue numbers refer to the chain shown, from its start.

How the values were obtained:
Format in all cases: binding
[1] = target: T1, NaDC1 (Homo sapiens, UniProt Q13183, S140A); test: CD thermal melting at […] nm; conditions: absolute Tm in presence of citrate, not a shift
T1 construct: gene SLC13A2; full length, homodimer; N-terminal FLAG purified from HEK293F (structures, natural variant I550V); GFP and FLAG tagged in HEK293T for currents
T1 sequence (Q13183 1-592 S140A): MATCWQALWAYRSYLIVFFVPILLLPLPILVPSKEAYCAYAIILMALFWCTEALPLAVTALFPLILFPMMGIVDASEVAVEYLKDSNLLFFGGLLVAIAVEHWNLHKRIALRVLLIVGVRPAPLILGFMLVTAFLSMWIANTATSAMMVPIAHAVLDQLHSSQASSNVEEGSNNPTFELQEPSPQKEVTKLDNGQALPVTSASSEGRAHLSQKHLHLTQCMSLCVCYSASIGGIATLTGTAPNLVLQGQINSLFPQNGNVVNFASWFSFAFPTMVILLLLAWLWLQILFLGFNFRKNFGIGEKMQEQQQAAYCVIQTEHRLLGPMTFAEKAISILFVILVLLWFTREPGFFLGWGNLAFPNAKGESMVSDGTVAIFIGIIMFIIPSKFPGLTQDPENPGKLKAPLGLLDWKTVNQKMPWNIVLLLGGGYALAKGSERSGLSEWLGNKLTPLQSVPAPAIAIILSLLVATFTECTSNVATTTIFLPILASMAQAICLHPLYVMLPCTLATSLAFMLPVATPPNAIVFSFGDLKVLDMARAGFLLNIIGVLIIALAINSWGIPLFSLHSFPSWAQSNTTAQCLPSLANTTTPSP

[2] = target: T2, NaDC1 (Homo sapiens, UniProt Q13183, I550V); test: cryo-EM structure ([…] Å); conditions: 10 mM sodium citrate; substrate site; Na+ at Na1 and Na2
T2 construct: gene SLC13A2; full length, homodimer; N-terminal FLAG purified from HEK293F (structures, natural variant I550V); GFP and FLAG tagged in HEK293T for currents
T2 sequence (Q13183 1-592 I550V): T1 sequence (Q13183 1-592 S140A) with A140S, I550V

[3] = target: T3, NaDC1 (Homo sapiens, UniProt Q13183, N476A); test: CD thermal melting at […] nm; conditions: absolute Tm in presence of citrate, not a shift
T3 construct: gene SLC13A2; full length, homodimer; N-terminal FLAG purified from HEK293F (structures, natural variant I550V); GFP and FLAG tagged in HEK293T for currents
T3 sequence (Q13183 1-592 N476A): T1 sequence (Q13183 1-592 S140A) with A140S, N476A

[4] = target: T4, NaDC1 (Homo sapiens, UniProt Q13183, N141A); test: CD thermal melting at […] nm; conditions: absolute Tm in presence of citrate, not a shift
T4 construct: gene SLC13A2; full length, homodimer; N-terminal FLAG purified from HEK293F (structures, natural variant I550V); GFP and FLAG tagged in HEK293T for currents
T4 sequence (Q13183 1-592 N141A): T1 sequence (Q13183 1-592 S140A) with A140S, N141A

- Tm [1]: 57.1 ± 0.7 °C
- Tm [3]: 60.5 ± 0.7 °C
- Tm [4]: 61.3 ± 0.5 °C
SMILES: O=C(O)CC(O)(CC(=O)O)C(=O)O [citrate]
- cryo-EM structure (2.7 Å) [2]: we discern two sodium ions and one citrate molecule distinctly situated within a single protomer
